Earlier results in patent US20210100738A1, “OXYGEN DELIVERY BEVERAGE” (RESPIROGEN, INC., priority 2018, published 2021).

Conditions: oral co-administration of lipids, in mammals

| SMILES | increase in bioavailability |
| --- | --- |
| C=C(C)[C@@H]1CCC(C)=C[C@H]1c1c(O)cc(CCCCC)cc1O [CBD, cannabidiol] | ~3 fold |
| CCCCCc1cc(O)c2c(c1)OC(C)(C)[C@@H]1CCC(C)=C[C@@H]21 [THC, Δ^9-tetrahydrocannabinol] | more than 2.5 fold |
